The results in this text go back to US10780074B2, “Compounds and uses thereof” (Sunovion Pharmaceuticals Inc., priority 2017, dated 2020).

The subject of the experiment is behaviors of compound-treated mice. The experiment can be described thus: Neuropharmacological Assay (SmartCube). To be noted: for minimal effective dose: Mus musculus, ip, 0.25 h, dose having 50% or more total activity in SmartCube, i.p., read-out: MED (minimal effective dose); for AD: ADHD (probability that activity matches class) / AG: analgesic (probability that activity matches class) / AX: anxiolytic (probability that activity matches class) / CE: cognitive enhancer (probability that activity matches class) / DP: anti-depressant (probability that activity matches class) / MS: mood stabilizer (probability that activity matches class) / PS: anti-psychotic (probability that activity matches class) / SD: sedative hypnotic (probability that activity matches class) / UN: uncharacterized CNS activity (probability that activity matches class): i.p. 15 min before behavioral test, most efficacious dose(s) of 3 doses. It counts as in vivo. An outline of the steps: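 Behavioral signatures were captured automatically by video, and each drug class received a probability for the best of three i.p. doses given 15 min pre-test (vehicle: Pharmasolve/PEG/propylene glycol). Potency is given as MED, the lowest mpk dose (typically 0.3–30) reaching 50% or more total activity.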

Each structure is given as a SMILES string. Counter-ions that a name gives are not always drawn. A value given as a limit tells only on which side of the number the result lay.

`CNC[C@@H]1OCCc2c(-c3ccccc3)cccc21` (single isomer, unassigned) [Compound 128, hydrochloride salt]: the minimal effective dose lay in the range of 10 to 30 mg/kg, the “AD: ADHD (probability that activity matches class)” value (shortened to “AD: ADHD”) was “+ (LOQ ≤ + <5%)”, the “AG: analgesic (probability that activity matches class)” value (shortened to “AG: analgesic”) is on record as “+ (LOQ ≤ + <5%)” and the “AX: anxiolytic (probability that activity matches class)” value (“AX: anxiolytic” below) was “+ (LOQ ≤ + <5%)”. Moreover, the “CE: cognitive enhancer (probability that activity matches class)” value (shortened to “CE: cognitive enhancer”) was “+ (LOQ ≤ + <5%)”, the “DP: anti-depressant (probability that activity matches class)” value (“DP: anti-depressant” for short) is reported as “+ (LOQ ≤ + <5%)”, the “MS: mood stabilizer (probability that activity matches class)” value (“MS: mood stabilizer” for short) is reported as “+ (LOQ ≤ + <5%)” and the “PS: anti-psychotic (probability that activity matches class)” value (“PS: anti-psychotic” for short) is listed as “+ (LOQ ≤ + <5%)”. Besides, the “SD: sedative hypnotic (probability that activity matches class)” value (“SD: sedative hypnotic” below) is recorded as “+ (LOQ ≤ + <5%)” and the “UN: uncharacterized CNS activity (probability that activity matches class)” value (from here on “UN: uncharacterized CNS activity”) is reported as “+ (LOQ ≤ + <5%)”.
`CNC[C@H]1OCCc2c(-c3ccccc3)cccc21` (single isomer, unassigned) [Compound 129, hydrochloride salt]: the minimal effective dose lay in the range of 3 to 10 mg/kg, the “AD: ADHD” value is reported as “+ (LOQ ≤ + <5%)”, the “AG: analgesic” value is “+ (LOQ ≤ + <5%)” and the “AX: anxiolytic” value is listed as “+ (LOQ ≤ + <5%)”. Moreover, the “CE: cognitive enhancer” value is listed as “++ (5% ≤ ++ <25%)”, the “DP: anti-depressant” value is “++++ (50% ≤ ++++)”, the “MS: mood stabilizer” value was “+ (LOQ ≤ + <5%)” and the “PS: anti-psychotic” value is given as “+ (LOQ ≤ + <5%)”. In addition, the “SD: sedative hypnotic” value was “++ (5% ≤ ++ <25%)” and the “UN: uncharacterized CNS activity” value is listed as “+ (LOQ ≤ + <5%)”.
`NC[C@@H]1OCCc2c(-c3ccccc3)cccc21` (single isomer, unassigned) [Compound 130, hydrochloride salt]: the minimal effective dose is 10 to 30 mg/kg, the “AD: ADHD” value is reported as “+ (LOQ ≤ + <5%)”, the “AG: analgesic” value is “+ (LOQ ≤ + <5%)” and the “AX: anxiolytic” value is listed as “++ (5% ≤ ++ <25%)”. Further, the “CE: cognitive enhancer” value is “+ (LOQ ≤ + <5%)”, the “DP: anti-depressant” value was “++ (5% ≤ ++ <25%)”, the “MS: mood stabilizer” value is listed as “+ (LOQ ≤ + <5%)” and the “PS: anti-psychotic” value is reported as “+ (LOQ ≤ + <5%)”. In addition, the “SD: sedative hypnotic” value is given as “+ (LOQ ≤ + <5%)” and the “UN: uncharacterized CNS activity” value is “+ (LOQ ≤ + <5%)”.
In the case of `NC[C@H]1OCCc2c(-c3ccccc3)cccc21` (single isomer, unassigned) [Compound 131, hydrochloride salt], the minimal effective dose is not above 3 mg/kg, the “AD: ADHD” value is given as “+ (LOQ ≤ + <5%)”, the “AG: analgesic” value was “+ (LOQ ≤ + <5%)” and the “AX: anxiolytic” value is given as “++ (5% ≤ ++ <25%)”. Also, the “CE: cognitive enhancer” value is “+ (LOQ ≤ + <5%)”, the “DP: anti-depressant” value was “++++ (50% ≤ ++++)”, the “MS: mood stabilizer” value was “+ (LOQ ≤ + <5%)” and the “PS: anti-psychotic” value is recorded as “+ (LOQ ≤ + <5%)”. Besides, the “SD: sedative hypnotic” value is reported as “+ (LOQ ≤ + <5%)” and the “UN: uncharacterized CNS activity” value was “++ (5% ≤ ++ <25%)”.

As usually defined, the minimal effective dose is the smallest amount tested that counted as effective.
